Experimental data from ChEMBL document CHEMBL1201862, “PubChem BioAssay data set” (2004).
Calls of active or inactive are those of the source.

Columns and labels:
[1] = target: T1, Tyrosine-protein phosphatase non-receptor type 22 (Homo sapiens, UniProt Q9Y2R2); experiment: inhibition of lymphoid tyrosine phosphatase LYP – biochemical, pCAP fluorogenic substrate, fluorescence, set 3, SAR follow-up (AID 449727); type: functional
T1 sequence (Q9Y2R2 whole entry): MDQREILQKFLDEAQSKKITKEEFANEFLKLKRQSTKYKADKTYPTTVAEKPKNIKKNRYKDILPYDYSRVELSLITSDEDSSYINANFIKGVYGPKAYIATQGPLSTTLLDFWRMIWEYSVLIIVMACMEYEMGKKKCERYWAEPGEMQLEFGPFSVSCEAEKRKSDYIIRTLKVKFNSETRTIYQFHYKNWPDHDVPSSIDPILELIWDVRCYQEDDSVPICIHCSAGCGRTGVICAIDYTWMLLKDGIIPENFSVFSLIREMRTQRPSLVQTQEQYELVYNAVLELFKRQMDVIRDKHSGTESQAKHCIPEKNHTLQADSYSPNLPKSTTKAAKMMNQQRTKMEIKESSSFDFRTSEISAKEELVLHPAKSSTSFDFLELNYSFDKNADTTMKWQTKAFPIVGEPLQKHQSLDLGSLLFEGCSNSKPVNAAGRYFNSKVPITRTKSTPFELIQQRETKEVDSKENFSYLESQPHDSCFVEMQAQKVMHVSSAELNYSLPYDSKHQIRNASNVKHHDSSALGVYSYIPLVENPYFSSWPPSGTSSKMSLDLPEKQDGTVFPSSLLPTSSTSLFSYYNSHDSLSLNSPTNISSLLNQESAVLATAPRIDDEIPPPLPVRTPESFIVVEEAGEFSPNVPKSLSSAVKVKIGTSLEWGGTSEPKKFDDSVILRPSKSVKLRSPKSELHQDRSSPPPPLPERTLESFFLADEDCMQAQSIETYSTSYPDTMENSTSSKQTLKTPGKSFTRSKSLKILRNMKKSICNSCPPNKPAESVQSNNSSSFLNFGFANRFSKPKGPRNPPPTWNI

[2] = target: T1, Tyrosine-protein phosphatase non-receptor type 22; experiment: SAR LYP1 Fluorescent Assay using OMFP substrate for In Vitro dose response studies - Set 2. [Related pubchem assays (depositor defined):AID1779, AID1784, AID2140, AID449726, AID488869]; type: functional
[3] = target: T1, Tyrosine-protein phosphatase non-receptor type 22; experiment: SAR LYP1 Fluorescent Assay using OMFP substrate for In Vitro dose response studies - Set 3. [Related pubchem assays (depositor defined):AID1779, AID1784, AID2140, AID2686]; type: functional
[4] = target: T1, Tyrosine-protein phosphatase non-receptor type 22; experiment: SAR LYP1 Fluorescent Assay using pCAP substrate for In Vitro dose response studies - Set 2. [Related pubchem assays (depositor defined):AID1779, AID1784, AID2135, AID449727]; type: functional
[5] = target: Tyrosine-protein phosphatase non-receptor type 12 (Homo sapiens, UniProt Q05209); experiment: SAR Selectivity Analysis of small molecule inhibitors of PEST using pCAP in a fluorescence assay. [Related pubchem assays (depositor defined):AID1779, AID1784, AID2135]; type: functional
[6] = target: T2, Tyrosine-protein phosphatase non-receptor type 7 (Homo sapiens, UniProt P35236); experiment: inhibition of hematopoietic tyrosine phosphatase HePTP – biochemical, set 2, SAR follow-up (AID 449736); type: functional
T2 sequence (P35236 whole entry): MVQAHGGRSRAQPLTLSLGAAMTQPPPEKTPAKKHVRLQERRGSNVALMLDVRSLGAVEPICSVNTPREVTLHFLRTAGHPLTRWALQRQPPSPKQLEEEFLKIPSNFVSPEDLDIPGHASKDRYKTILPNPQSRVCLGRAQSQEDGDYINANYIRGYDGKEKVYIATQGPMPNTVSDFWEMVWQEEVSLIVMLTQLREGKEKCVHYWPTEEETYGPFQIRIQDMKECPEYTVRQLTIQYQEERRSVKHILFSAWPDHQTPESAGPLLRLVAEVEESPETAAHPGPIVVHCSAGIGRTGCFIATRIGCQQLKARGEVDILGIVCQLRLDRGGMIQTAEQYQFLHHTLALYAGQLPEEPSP

[7] = target: T3, Coagulation factor XII (Homo sapiens, UniProt P00748); experiment: Factor XIIa Dose Response Confirmation from Single Well HTS. [Related pubchem assays (depositor defined):AID701]; type: functional
T3 sequence (P00748 whole entry): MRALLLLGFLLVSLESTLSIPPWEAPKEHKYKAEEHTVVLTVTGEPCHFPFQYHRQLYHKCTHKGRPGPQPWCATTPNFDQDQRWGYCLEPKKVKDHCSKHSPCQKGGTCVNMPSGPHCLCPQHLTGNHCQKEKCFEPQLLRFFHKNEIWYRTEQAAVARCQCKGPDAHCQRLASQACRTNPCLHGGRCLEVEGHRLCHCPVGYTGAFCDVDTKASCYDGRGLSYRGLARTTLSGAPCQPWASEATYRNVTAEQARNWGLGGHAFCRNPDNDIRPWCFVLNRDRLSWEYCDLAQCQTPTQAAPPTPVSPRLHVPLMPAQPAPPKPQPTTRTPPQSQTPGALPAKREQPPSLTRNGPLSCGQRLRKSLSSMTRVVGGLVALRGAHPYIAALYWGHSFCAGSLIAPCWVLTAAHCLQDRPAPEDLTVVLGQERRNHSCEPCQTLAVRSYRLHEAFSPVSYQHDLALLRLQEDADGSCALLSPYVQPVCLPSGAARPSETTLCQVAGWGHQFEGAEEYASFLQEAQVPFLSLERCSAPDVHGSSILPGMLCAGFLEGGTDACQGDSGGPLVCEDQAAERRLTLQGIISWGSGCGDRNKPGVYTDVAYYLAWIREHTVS

[8] = NIH3T3 cell viability loss – ATP luminescence, mouse fibroblasts, counter-screen, dose response (AID 2010); type: functional, cell-based;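 further: cells exposed to compound for about 90 hours before reading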
[9] = Trypanosoma cruzi growth suppression in host cells – NIH3T3 host cells, beta-gal luminescence, confirmation (AID 2044); type: functional, cell-based;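 further: intracellular parasites grown in NIH/3T3 mouse fibroblasts as host cells; luminescent beta-galactosidase reporter signal from transgenic T. cruzi replicating inside host cells; inhibitors lower the luminescence signal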
[10] = test system: Streptococcus sp. 'group A'; experiment: Streptococcus pyogenes SK(-)GAS viability under kanamycin – luminescence, BacTiterGlo, confirmation, counter-screen for streptokinase expression inhibitor project, dose response (AID 1900); type: functional, organism-based
[11] = toxicity toward cultured mammalian cells – cell-based, plate reader, cherry-pick samples, cytotoxicity control, dose response (AID 504397); type: functional
[12] = target: T4, CAAX prenyl protease 2 (Homo sapiens, UniProt Q9Y256); experiment: inhibition of Ras-converting CAAX protease Rce1 – biochemical, yeast membranes, quenched-peptide fluorescence, cherry-pick, dose response (AID 588849)
T4 sequence (Q9Y256 whole entry): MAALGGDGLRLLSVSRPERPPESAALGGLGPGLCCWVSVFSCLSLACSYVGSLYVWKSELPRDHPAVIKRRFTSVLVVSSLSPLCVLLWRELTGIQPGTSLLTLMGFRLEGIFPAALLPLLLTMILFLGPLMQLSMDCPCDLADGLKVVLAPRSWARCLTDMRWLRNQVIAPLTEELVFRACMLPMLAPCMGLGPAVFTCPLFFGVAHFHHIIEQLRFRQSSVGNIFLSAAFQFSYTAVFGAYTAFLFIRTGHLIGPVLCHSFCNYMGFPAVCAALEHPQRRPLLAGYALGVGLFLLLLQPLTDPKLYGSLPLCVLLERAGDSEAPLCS

[13] = test system: Streptococcus; experiment: GAS UMAA2166 growth inhibition – luminescence, BacTiterGlo, counter-screen for streptokinase expression inhibitor project, dose response (AID 1915); type: functional, organism-based;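 further: potency for reduction of bacterial viability or growth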
[14] = target: T5, E3 ubiquitin-protein ligase XIAP (Homo sapiens, UniProt P98170); experiment: Counter Screen using XIAP-Bir3 for Chemical Antagonists of Bir1/2 domains of IAP-family anti-apoptotic proteins. [Related pubchem assays (depositor defined):AID1018, AID1449, AID1514, AID1638, AID1749, AID1750, AID488957, AID488963]
[15] = target: T5, E3 ubiquitin-protein ligase XIAP; experiment: small molecules displacing peptide from XIAP – biochemical, IAP family, fluorescence polarization (AID 1018); type: functional
[16] = target: Troponin, cardiac muscle (Homo sapiens, UniProt P19429+P45379+P63316); experiment: Fluorescence-based biochemical high throughput dose response assay for activators of the calcium sensitivity of cardiac Regulated Thin Filaments (RTF). [Related pubchem assays (depositor defined):AID493008, AID493018, AID504382, AID504383]; type: protein-complex assay

T5 sequence (P98170 whole entry): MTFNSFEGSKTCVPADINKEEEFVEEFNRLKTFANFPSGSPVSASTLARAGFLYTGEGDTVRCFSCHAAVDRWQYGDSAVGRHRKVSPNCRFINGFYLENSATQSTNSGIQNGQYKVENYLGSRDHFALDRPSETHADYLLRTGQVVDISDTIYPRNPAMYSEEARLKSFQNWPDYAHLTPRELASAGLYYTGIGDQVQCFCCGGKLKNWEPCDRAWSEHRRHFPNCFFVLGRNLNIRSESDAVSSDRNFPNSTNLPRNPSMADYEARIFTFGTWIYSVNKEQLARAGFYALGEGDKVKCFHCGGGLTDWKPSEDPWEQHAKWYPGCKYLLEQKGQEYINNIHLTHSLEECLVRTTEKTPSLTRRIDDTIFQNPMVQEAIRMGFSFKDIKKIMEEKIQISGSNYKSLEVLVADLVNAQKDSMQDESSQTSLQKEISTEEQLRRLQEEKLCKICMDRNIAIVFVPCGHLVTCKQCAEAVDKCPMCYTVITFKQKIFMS
Sequence of Tyrosine-protein phosphatase non-receptor type 12 (Q05209 whole entry): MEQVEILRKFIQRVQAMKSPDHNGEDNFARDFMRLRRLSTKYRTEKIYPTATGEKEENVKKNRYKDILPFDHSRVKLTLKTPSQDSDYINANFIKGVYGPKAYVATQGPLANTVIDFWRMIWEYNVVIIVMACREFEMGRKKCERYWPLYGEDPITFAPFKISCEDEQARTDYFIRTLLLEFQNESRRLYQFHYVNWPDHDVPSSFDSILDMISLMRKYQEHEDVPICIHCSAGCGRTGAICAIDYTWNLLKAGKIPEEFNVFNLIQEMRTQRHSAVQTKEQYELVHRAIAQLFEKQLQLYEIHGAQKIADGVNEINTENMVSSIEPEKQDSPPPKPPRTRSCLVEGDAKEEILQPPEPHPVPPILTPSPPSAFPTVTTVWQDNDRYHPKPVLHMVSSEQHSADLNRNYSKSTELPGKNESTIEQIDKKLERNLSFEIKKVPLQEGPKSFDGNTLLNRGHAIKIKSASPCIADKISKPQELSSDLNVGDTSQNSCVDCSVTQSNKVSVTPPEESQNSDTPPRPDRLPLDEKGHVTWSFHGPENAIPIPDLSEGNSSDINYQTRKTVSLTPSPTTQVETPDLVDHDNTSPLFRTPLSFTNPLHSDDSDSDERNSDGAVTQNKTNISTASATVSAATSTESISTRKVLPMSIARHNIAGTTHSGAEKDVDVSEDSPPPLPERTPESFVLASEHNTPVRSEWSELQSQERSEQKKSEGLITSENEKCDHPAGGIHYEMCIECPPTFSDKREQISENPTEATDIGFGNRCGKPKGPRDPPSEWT

In the case of CCOc1cc(C=NNC(=O)c2ccc(-c3csc(Nc4ccc(C)cc4)n3)cc2)ccc1OCC(=O)O, the IC50 [1] is reported as 4.27 µM (active), the IC50 [2] is reported as 5.13 µM (active) and the IC50 [3] is reported as 1.04 µM (active). The IC50 [4] was 4.42 µM (active), the IC50 [5] was 1 µM (active) and the IC50 [6] was 1.91 µM (active).

In the case of CC(C)C(C)(C#N)NC(=O)CSc1nnc(C(F)(F)F)n1C (stereo unspecified), the IC50 [7] is reported as > 50 µM (inactive).

For C/C(Cl)=C\Cn1c(O)c(/N=N/C(=N)S)c2cc(Br)ccc21, the EC50 [8] was > 30 µM (not active), the EC50 [9] was 1.32 µM (active) and the EC50 [10] was 1.26 µM (active). The AC50 [11] was 281 µM (active), the AC50 [12] was 12.6 µM (active) and the EC50 [13] was 3.93 µM (active).

In the case of CC(=O)NCCc1nc2ccccc2n1CCc1ccccc1, the IC50 [14] is reported as > 100 µM (inactive) and the IC50 [15] is reported as > 100 µM (not active).

In the case of Cc1ccnc2nc(C(=O)OCC(=O)NCCc3ccccc3)nn12, the EC50 [16] is reported as > 71.5 µM (inactive).
